Assay results from US11311568B2, “Therapeutic pharmaceutical composition for cancer including miRNA” (Purmx Therapeutics, Inc., priority 2017, dated 2022).

Key:
Assay in all cases: Screening in cancer cell strains, cell survival rate with PrestoBlue
Type in all cases: cell-based
[1] = tested on: tongue cancer cell strain HSC-4; conditions: HSC-4, Day 5 after transfection with RNAiMAX, compared with miR-34a-5p
Procedure: (§1) The 349 types of aging induction miRNA (mirVana; Ambion) obtained from screening were transfected into various cancer cell strains (large intestine cancer cell strain HCT116 (p53 wildtype and p53 deletion), pancreatic cancer cell strains BxPC-3 and CFPAC-1, and tongue cancer cell strain HSC-4) with an auto dispenser Bravo (Agilent).
(§2) Transfection was carried out with the following protocol.
(§3) 1: To 70 μL of serum free medium (SFM) was added 0.35 μL of RNAiMAX (Invitrogen).
(§4) 2: The solution from 1 was added to a 96-well plate (μ-plate; ibidi) with Bravo.
(§5) 3: To 2 was added 0.7 μL of miRNA (Stock Conc. 200 nM) with Bravo, and this was mixed by pipetting.
(§6) 4: This was incubated at room temperature for 20 minutes.
(§7) 5: A cell suspension diluted to 3.5×10^4 cells/mL was dispensed at 70 μL each with Bravo.
(§8) 6: This was incubated at 37° C. under 5% CO2 condition.
(§9) Setting the day of transfection as Day 0, on Day 5 the cell survival rate was evaluated with PrestoBlue (Invitrogen). The operating protocol is shown below.
(§10) 1. The medium was exchanged to a medium comprising PrestoBlue diluted 20-folds, and this was incubated at 37° C. for 1 hour. 2. The fluorescence value (Ex/Em=560 nm/590 nm) was measured with Enspire (Perkin Elmer).
(§11) 3. The cell survival rate was determined by setting the fluorescence value obtained from the well with only the reagent as the background.

[2] = tested on: large intestine cancer cell strain HCT116 (p53 wildtype); conditions: Day 5 after transfection with RNAiMAX, compared with miR-34a-5p
Procedure: as §1, §2, §3, §4, §5, §6, §7, §8, §9, §10, §11

[3] = tested on: large intestine cancer cell strain HCT116 (p53 deletion); conditions: Day 5 after transfection with RNAiMAX, compared with miR-34a-5p
Procedure: as §1, §2, §3, §4, §5, §6, §7, §8, §9, §10, §11

[4] = tested on: pancreatic cancer cell strain CFPAC-1; conditions: CFPAC-1, Day 5 after transfection with RNAiMAX, compared with miR-34a-5p
Procedure: as §1, §2, §3, §4, §5, §6, §7, §8, §9, §10, §11

[5] = tested on: pancreatic cancer cell strain BxPC-3; conditions: BxPC-3, Day 5 after transfection with RNAiMAX, compared with miR-34a-5p
Procedure: as §1, §2, §3, §4, §5, §6, §7, §8, §9, §10, §11

Substance | suppression of cell proliferation (cell survival rate, PrestoBlue) [1] | suppression of cell proliferation (cell survival rate, PrestoBlue) [2] | suppression of cell proliferation (cell survival rate, PrestoBlue) [3] | suppression of cell proliferation (cell survival rate, PrestoBlue) [4] | suppression of cell proliferation (cell survival rate, PrestoBlue) [5]
miR-137-3p: Mature-miRNA, UUAUUGCUUAAGAAUACGCGUAG (SEQ ID NO. 5) (listed as RNA, chemistry not given here; listed as Homo sapiens) | suppress cell proliferation more significantly than miR-34-5p | suppress cell proliferation more significantly than miR-34-5p | suppress cell proliferation more significantly than miR-34-5p | suppress cell proliferation more significantly than miR-34-5p | suppress cell proliferation more significantly than miR-34-5p
miR-657-3p: Mature-miRNA, GGCAGGUUCUCACCCUCUCUAGG (SEQ ID NO. 11) (listed as RNA, chemistry not given here; listed as Homo sapiens) | suppress cell proliferation more significantly than miR-34-5p | suppress cell proliferation more significantly than miR-34-5p | suppress cell proliferation more significantly than miR-34-5p | suppress cell proliferation more significantly than miR-34-5p | suppress cell proliferation more significantly than miR-34-5p
miR-631-5p: Mature-miRNA, AGACCUGGCCCAGACCUCAGC (SEQ ID NO. 8) (listed as RNA, chemistry not given here; listed as Homo sapiens) | suppress cell proliferation more significantly than miR-34-5p | suppress cell proliferation more significantly than miR-34-5p | suppress cell proliferation more significantly than miR-34-5p | suppress cell proliferation more significantly than miR-34-5p | suppress cell proliferation more significantly than miR-34-5p
